# Data published in article PMC4140852 (PLoS Pathogens, 2014).
# Molecular target: T1, APRc (rAPRc activation product, rAPRc105-231) (Rickettsia conorii, UniProt Q92FY8)
# T1 construct: gene RC1339
# Format: biochemical
# T1 sequence (Q92FY8 105-231 limits assumed): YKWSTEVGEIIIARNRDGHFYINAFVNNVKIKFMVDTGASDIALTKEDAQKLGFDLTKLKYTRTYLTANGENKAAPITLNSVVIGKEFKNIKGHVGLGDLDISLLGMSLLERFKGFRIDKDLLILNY
structure (smiles),measurement,value
CC(C)(C)NC(=O)[C@@H]1CN(Cc2cccnc2)CCN1C[C@@H](O)C[C@@H](Cc1ccccc1)C(=O)N[C@H]1c2ccccc2C[C@H]1O [indinavir],% inhibition at 0.25 mM,incubation with indinavir resulted in a near complete inhibition of APRc
